Measurements reported in patent publication USRE49340E1, “Use of known compounds as D-amino acid oxidase inhibitors” (National Taiwan University, priority 2014, dated 2022).
Values joined by “and” are separate entries in the source; they are usually repeats but may differ in a detail not shown here. Equal entries are not always repeated. “Also recorded” adds a separate entry of the source. Structures can show the parent of a compound that is named as a salt. Where two headings read alike, the source gives them in different places.

Columns and labels:
porcine kidney DAAO = porcine kidney DAAO (Sus scrofa (Pig), UniProt P00371); assay: DAAO enzymatic assay; type: biochemical
Sequence of porcine kidney DAAO (P00371 whole entry): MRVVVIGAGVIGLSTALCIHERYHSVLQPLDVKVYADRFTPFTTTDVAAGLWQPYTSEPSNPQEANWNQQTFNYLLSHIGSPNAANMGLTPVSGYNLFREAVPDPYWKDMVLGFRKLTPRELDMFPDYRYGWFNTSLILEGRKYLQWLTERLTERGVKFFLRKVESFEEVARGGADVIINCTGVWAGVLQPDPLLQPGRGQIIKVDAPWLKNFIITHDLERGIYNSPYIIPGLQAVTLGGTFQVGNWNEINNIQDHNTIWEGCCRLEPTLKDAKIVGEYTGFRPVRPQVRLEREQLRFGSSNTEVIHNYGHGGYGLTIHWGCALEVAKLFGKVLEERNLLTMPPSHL
Protocol: The DAAO activity was measured by using substrate D-alanine reaction produced hydrogen peroxide (H2O2) to further react with 3-(4-hydroxyphenyl) propionic acid (HPPA). The HPPA were oxidized by H2O2 and peroxidase to become the fluorogenic dimer which was measured to represent the activity of DAAO. The substrate of DAAO was prepared in 50 mM D-alanine (dissolved in 0.2 M Tris-HCl buffer, pH 8.3). […] A 10 ul of D-alanine and drug mixture was incubated with 220 ul of Reaction Master Mix in black 96 well plate at 37° C. for 5 min. The Reaction Master Mix contained 110 ul of 5 U/mL porcine kidney DAAO (Sigma-Aldrich, USA) solution (dissolved with 0.2 M Tris-HCl buffer, pH 8.3), 1.1 mL of 15 U/mL peroxidase solution (dissolved with 0.2 M Tris-HCl buffer, pH 8.3), 1.1 mL of 20 mM HPPA solution (dissolved with 0.2 M Tris-HCl buffer, pH 8.3), and 2.2 ml of 2 M Tris-HCl buffer (pH 8.3) for 110 reaction assays.
The higher is the DAAO enzymatic activity, the higher is the fluorescence intensity. The fluorometric inhibition indicator (Fi) was obtained from the following equation: Fi=(Fs−FDrug)/(FDMSO). Where the fluorescent drug blank (FDrug) were measured in the drug mixture solution (using 0.2 M Tris HCl buffer, pH 8.3, without D-alanine). A DMSO blank (FDMSO) was measured under a 100% DMSO solution. Although, in the assay for D-amino acid oxidase, FAD was generally included in the reaction mixture because this co-factor is easily dissociated from the holoenzyme, the present method was performed without FAD. […] The IC50 value was calculated by GraphPad Prism, version 5 software (GraphPad Software, Inc., La Jolla, Calif.) (GraphPad Prism 5, GraphPad software Inc: California, USA) through nonlinear regression model.

[1] = system: C57/B16 mice with MK-801 injection; assay: Sucrose preference test in MK-801 mouse model of schizophrenia; type: in vivo; settings: mice given MK-801 0.2 mg/kg i.p., 20 mg/kg RS-D7
Source text: (§1) Taking advantage of wild-type (WT, healthy) mouse and pharmacologic animal models of schizophrenia, such as MK-801 and methamphetamine mouse model of schizophrenia, as the well-established animal models of schizophrenia, we investigate the therapeutic potential of RS-D7, a DAO inhibitor, on the alleviation of schizophrenia-related negative and cognitive deficits. A serial of behavioral tasks has been selected and conducted for mimicking the cognitive (e.g., prepulse inhibition) and negative symptoms (e.g., sucrose preference test and hot plate test) of schizophrenia in healthy control mice or pharmacological mouse model of schizophrenia (Lai, W. S et al., Current Pharmaceutical Design, 2014, 20(32), 5139-50). The pharmacological animal model of schizophrenia is due in part to similarities in clinical presentation and response to treatment. These behavioral tasks have been evaluated with varying degrees of test validities for assessing schizophrenia-relevant behavioral deficits in mice. Different batches of male adult C57/B16 mice were used and the details of different behavioral tasks were described elsewhere.
(§2) MK-801 is a non-competitive NMDA receptor antagonist. An injection and chronic injections of MK-801 provide a potential animal model to mimic both the negative and cognitive symptoms of schizophrenia. […]

[2] = system: C57/B16 mice with MK-801 injection; assay: Prepulse inhibition in MK-801 mouse model of schizophrenia; type: in vivo; settings: mice given MK-801 0.2 mg/kg i.p., 40 mg/kg RS-D7
Source text: as §1, §2

[3] = system: ICR mice with methamphetamine injection; assay: Prepulse inhibition in methamphetamine mouse model of schizophrenia; type: in vivo; settings: ICR mice with methamphetamine 3 mg/kg i.p., 20 mg/kg i.p., especially 74 dB prepulse, vs DMSO and CBIO controls; listed as RS-D7
Source text: Methamphetamine is a potent psychostimulant that increases the amount of extracellular dopamine in the brain. Methamphetamine (or amphetamine)-induced psychosis model has been well-established and useful for schizophrenia in laboratory animals.

WT mice [4] = assay: Prepulse inhibition (PPI) in WT mouse model; type: in vivo; settings: 20 mg/kg i.p., 78 dB prepulse, vs saline controls, listed as RS-D7
Source text: as §1
To assess schizophrenia-like cognitive function in mice, prepulse inhibition (PPI) was used to evaluate sensorimotor gating functions in mice after RS-D7 injection. […]

WT mice [5] = assay: Hot plate test in WT mouse model; type: in vivo; settings: 55° C. hot plate, 40 mg/kg i.p., vs WT controls, listed as RS-D7
Source text: as §1
For schizophrenia-like negative symptoms in mice, hot plate test was used to assess basic pain and nociception function in mice. […]

[6] = system: C57/B16 mice with MK-801 injection; assay: Hot plate test in MK-801 mouse model of schizophrenia; type: in vivo; settings: mice given MK-801 0.2 mg/kg i.p.; listed as RS-D7
Source text: as §1, §2

[7] = porcine kidney DAAO, D-alanine substrate, HPPA fluorescence, pH 8.3, 37° C.

`COc1c(C)cnc(C[S+]([O-])c2nc3cc(O)ccc3[nH]2)c1C` (stereo not shown) [5-O-Desmethyl-Omeprazole] was tested, and the IC50 (porcine kidney DAAO; [7]) was 1.19 µM and 1 to 10 µM, the “sucrose uptake in sucrose preference test (anhedonia)” value [1] was “alleviates; also recorded: rescued the MK-801 induced deficit” and the acoustic prepulse inhibition [2] was “alleviates; also recorded: significantly alleviated MK-801 induced PPI deficit”. The “prepulse inhibition (sensorimotor gating function)” value [3] was “alleviates sensorimotor gating deficit; also recorded: induce a greater PPI”, the “prepulse inhibition (sensorimotor gating function)” value (WT mice [4]) was “increases; also recorded: induced a greater PPI” and the “latency of mouse first reaction (jump) on hot plate” value (WT mice [5]) was “increases nociception function; also recorded: accelerated”. For the same compound, the “numbers of jump on hot plate” value (WT mice [5]) was “increases nociception function; also recorded: increased”, the “latency in hot plate test” value [6] was “alleviates; also recorded: alleviated the MK-801-induced alteration” and the “reaction numbers in hot plate test” value [6] was “alleviates; also recorded: alleviated the MK-801-induced alteration”.

`COc1ccc2nc([S@@+]([O-])Cc3ncc(C)c(OC)c3C)[nH]c2c1` [Esomeprazole, reference compound] showed an IC50 (porcine kidney DAAO; [7]) of 106 µM.

With `CNCC[C@H](Oc1cccc2ccccc12)c1cccs1` [Duloxetine, reference compound] the IC50 (porcine kidney DAAO) was 5.47 µM.

In the case of `CCN(CC)Cc1cc(Nc2ccnc3cc(Cl)ccc23)ccc1O` [Amodiaquin, reference compound], the IC50 (porcine kidney DAAO; [7]) is reported as 97.6 µM.

`COc1ccc(OC[C@@H]2CNCC[C@H]2c2ccc(F)cc2)cc1O` [PM-BRL 36583A, (−)-trans 4-(4-Fluorophenyl)-3-(3-hydroxy-4-methoxyphenoxymethyl) piperidine] showed an IC50 (porcine kidney DAAO; [7]) of 3.67 µM.

Work on `COc1cc(OC[C@@H]2CNCC[C@H]2c2ccc(F)cc2)ccc1O` [PM-BRL 36610A, (−)trans 4-(4-fluorophenyl)-3-(4-hydroxy-3-methoxyphenoxymethyl)piperidine-hydrochloride] yielded an IC50 (porcine kidney DAAO; [7]) of 3.45 µM.

Work on `Clc1ccc2c(c1)N=C(N1CCNCC1)c1ccccc1N2` [N-Desmethylclozapine] yielded an IC50 (porcine kidney DAAO; [7]) of 102 µM.

`O=C([O-])c1ccccc1.[Na+]` [sodium benzoate, reference compound] was tested, and the IC50 (porcine kidney DAAO) was ~71.7 µM.
